From BigSolDB 2.1

C[C@H](N)C(=O)O
solubility (mole fraction)
Conditions | 283.15 K | 293.15 K | 303.15 K | 313.15 K | 323.15 K
in acetone | 7.1e-05 | 0.000116 | 0.000138 | 0.000166 | 0.000202
in acetonitrile | 7.6e-05 | 0.000121 | 0.000157 | 0.000178 | 0.000209
in ethanol | 0.000193 | 0.000226 | 0.000244 | 0.000251 | 0.00027
in ethyl acetate | 7.8e-05 | 0.00014 | 0.00016 | 0.00018 | 0.000217
in isobutanol | 0.000294 | 0.000314 | 0.000332 | 0.000346 | 0.000361
in isopropanol | 8.2e-05 | 0.000144 | 0.000174 | 0.00019 | 0.000245
in methanol | 0.000407 | 0.000428 | 0.00049 | 0.000531 | 0.00062
in n-butanol | 0.000414 | 0.000449 | 0.000517 | 0.000611 | 0.000895
in n-pentanol | 0.000216 | 0.000253 | 0.00032 | 0.000382 | 0.000465
in n-propanol | 0.000122 | 0.000215 | 0.000261 | 0.000313 | 0.000452
in sec-butanol | 0.000297 | 0.000333 | 0.000407 | 0.000552 | 0.000734
in water | 0.0279 | 0.0308 | 0.0342 | 0.038 | 0.042
